Source: US6699477B2, “EBV CTL epitopes” (The Council of the Queensland Institute of Medical Research, priority 1996, dated 2004)
Where two headings read alike, the source gives them in different places.

What was measured:
[1] = tested on: EBV; settings: Table 4; cited from earlier work
[2] = tested on: EBV; test: EBV type of CTL epitopes of the invention (Table 3); format: cell-based, Epstein-Barr virus
[3] = tested on: HLA; settings: Table 3
[4] = tested on: HLA; settings: Table 4; cited from earlier work
[5] = tested on: CTL culture B5; test: Identification of specific peptide target, overlapping peptides on autologous PHA blasts; format: cell-based, human; settings: peptides preincubated with autologous PHA blasts
Experimental: (§1) Limiting dilution cultures were established by distributing PBL from the fourth bleed in 24 replicates at 2×10^4 cells per well in 96-well round-bottomed microtitre plates. Doubling dilutions were made to a final concentration of 1.6×10^2 per well. Approximately 1×10^4 γ-irradiated (8000 rads) autologous type B (EW-Ag-876) LCLs were added to each well as both feeder and stimulator cells to a total volume of 100 μl. Cultures were fed on days 4 and 7 with 50 μl of T cell growth medium and assayed on day 10 or later. The plates were subcultured and maintained in T cell growth medium and stimulated with γ-irradiated EW-Ag-876 LCLs. Initial assays were against type A and type B LCLs and subsequently against peptide-coated PHA-blasts or LCLs. Precursor frequencies were determined by a modification of the method of maximum likelihood estimation (11). Assessment of peptide specific activity. For determination of the antigenic specificity at the peptide level, a set of 20-mer overlapping peptides of EBNA-6B (residues 100-1069 (46)) was prepared using a kit and software distributed by Chiron Mimotopes (Chiron Corporation, Sydney, Australia). Nine-mer and 10-mer overlapping peptides with unblocked C and N termini were manufactured by Chiron Mimotopes. Labelled target cells were preincubated with overlapping peptides in the 96-well trays for 30-60 minutes before adding effectors. […]

[6] = tested on: T cell precursors; test: Limiting dilution cultures, epitope specific precursor frequency; settings: PBL of donor stimulated by autologous type B cells; assayed 12 weeks later
[7] = tested on: B-type epitope CTL; test: HLA-restriction CTL assay of type B-specific epitope, cell lines with or without specific peptide; format: cell-based, human; settings: QNGALAINTF specific CTLs, peptide-incubated targets of known HLA specificity
Experimental: as §1

Sequence | EBV Type [1] | EBV Type [2] | other results
DTPLIPLTIF | Type 1 |  | 
VPAPAGPIV |  | Type 1 | 
VEITPYEPTW |  | Type 1 | 
RYSIFFDY | Type 1 |  | 
RRRWRRLTV | Type 1 |  | 
VSSDGRVVC |  | Type 1 | HLA restriction [3]: HLA A29
HLAAQGMAY | Type 1 |  | 
AVLLHEESM | Type 1 |  | 
RRIYDLIKL |  | Type 1 | 
VSSDGRVPC |  | Type 1 | 
QPRAPIRPI | Type 1 & 2 |  | HLA Rest. [4]: HLA B7
RLRAEAGVK | Type 1 |  | HLA Rest. [4]: HLA A3
VSSDGLVAC |  | Type 1 | 
VELTPYKPTW |  | Type 1 | 
TVFYNIPPMPL | Type 1 |  | HLA Rest. [4]: HLA DQ2
SVRDRLARL | Type 1 & 2 |  | HLA Rest. [4]: HLA A2
VEITPYKPTW | Type 1 |  | 
VSSDGQVAC |  | Type 1 | 
VEITPYEPTG |  | Type 1 | 

Sequence | EBV Type [1] | EBV Type [2] | other results
FLRGRAYGL | Type 1 |  | HLA Rest. [4]: HLA B8
LPGPQVTAVLLHEES | Type 1 |  | 
QVKWRMTTL |  | Type 2 | 
DEPASTEPVHDQLL | Type 1 |  | 
VSSEGRVAC |  | Type 1 | 
NPTQAPVIQLVHAVY | Type 1 |  | 
QNAARTLNTF [reference compound] |  |  | Recognition by type B specific culture B5 [5]: nonreactive
RPPIFIRRL | Type 1 |  | HLA Rest. [4]: HLA B7
CLGGLLTMV | Type 1 & 2 |  | HLA Rest. [4]: HLA A2
EENLLDFVRF | Type 1 & 2 |  | 
TYSAGIVQI |  | Type 1 | 
TSLYNLRRGTALA | Type 1 & 2 |  | HLA Rest. [4]: HLA DR1
VPAPPVGPIV |  | Type 1 | 
VSSDGRVAC |  | Type 1 | 
QNGALAINTF [residues 213-222 of EBNA-6B] |  | Type 2 | Frequency (epitope specific T cell precursors) [6]: 1/16395; Recognition by type B specific culture B5 [5]: minimal epitope; HLA restriction [7]: B62 (B15)-restricted
KEHVIQNAF | Type 1 |  | 
VFSDGRVAC |  | Type 1 | 
VSFIEFVGW | Type 1 |  | 
